We go through 16 compounds from patent US9187430B2, “Poly (ADP-ribose) polymerase inhibitor” (CHENGDU DI'AO PHARMACEUTICAL GROUP CO., LTD., priority 2011, dated 2015).

≈ marks a conversion by molar mass, not a printed value.

One data set has as its system triple-negative phenotypic breast cancer cell line MDA-MB-436. As to the kind of experiment: Cell proliferation inhibition assay (SRB method). The data set is classed as cell-based. Particulars: Homo sapiens, 144 h; BRCA-deficient MDA-MB-436, six days, compound alone. An excerpt: Cell Proliferation Inhibition Assay
This assay was used to study the effect of PARP-1 inhibitor alone for tumor suppression. Breast cancer susceptibility genes BRCA1 and BRCA2 play an important role in homologous recombination DNA repair. BRCA-deficient cells represent homologous recombination repair defect, if PARP-mediated DNA repair is inhibited at the same time, DNA damage in cells may be increased, resulting in chromatin abnormality or even cell death.
BRCA-deficient breast cancer cell line MDA-MB-436 was selected for the assay, PARP inhibitor was used alone to evaluate its damage effect on cells. The inhibition effect of the compound was expressed by IC50.
Breast cancer cell line MDA-MB-436 in good growth condition seeded in 96-well plates (5000 cells/well or 3000 cells/well, respectively), and cultured overnight in an incubator at 37° C., 5% CO2 with saturated humidity. On the next day, samples with a series of concentration gradients were added and cultured for another six days. SRB method was used to detect the samples' inhibition on cell growth and calculate their growth inhibition rate.
The IC50 is the concentration that gives 50% inhibition. In the case of `CCC(CC)C(=O)N1CCN(C(=O)c2cc(Oc3n[nH]c(=O)c4ccccc34)ccc2F)CC1` [Compound 61, 4-(3-(4-(2-ethylbutyryl)piperazine-1-carbonyl)-4-fluorophenoxy)-2H-phthalazin-1-one], the half-inhibitory concentration (IC50) stood at 1.98 µM.

Take `O=C(c1cc(Oc2n[nH]c(=O)c3ccccc23)ccc1F)N1CCN(C(=O)c2ccccc2[N+](=O)[O-])CC1` [Compound 88, 4-(4-fluoro-3-(4-(2-nitrobenzoyl)piperazine-1-carbonyl)phenoxy)-2H-phthalazin-1-one]: the IC50 was 3.28 µM.

Consider `O=C(c1cc(Oc2n[nH]c(=O)c3ccccc23)ccc1F)N1CCN(C(=O)N2CCCCC2)CC1` [Compound 85, 4-(4-fluoro-3-(4-(piperidine-1-carbonyl)piperazine-1-carbonyl)phenoxy)-2H-phthalazin-1-one], for which the half-inhibitory concentration (IC50) stood at 3.35 µM.

As to `O=C(c1cc(Oc2n[nH]c(=O)c3ccccc23)ccc1F)N1CCN(C(=O)C2CCC(F)(F)CC2)CC1` [Compound 107, 4-(3-(4-(4,4-difluorocyclohexanecarbonyl)piperazine-1-carbonyl)-4-fluorophenoxy)2H-phthalazin-1-one], the concentration for half-maximal inhibition (IC50) stood at 3.17 µM.

Consider `CCC(=O)N1CCN(C(=O)c2cc(Oc3n[nH]c(=O)c4ccccc34)ccc2F)CC1` [Compound 100, 4-(4-fluoro-3-(4-propionylpiperazine-1-carbonyl)phenoxy)2H-phthalazin-1-one], for which the 50% inhibitory concentration (IC50) is 4.12 µM.

Regarding `C[C@]1(C(=O)N2CCN(C(=O)c3cc(Oc4n[nH]c(=O)c5ccccc45)ccc3F)CC2)CCCN1` [Compound 130, (R)-4-(4-fluoro-3-(4-(2-methylpyrrolidine-2-carbonyl)piperazine-1-carbonyl)phenoxy)-2H-phthalazin-1-one], the half-maximal inhibitory concentration (IC50) amounted to 3.85 µM.

Turning to `CN(C)C1(C(=O)N2CCN(C(=O)c3cc(Oc4n[nH]c(=O)c5ccccc45)ccc3F)CC2)CC1` [Compound 124, 4-(3-(4-(1-(dimethylamino)cyclopropanecarbonyl)piperazine-1-carbonyl)-4-fluorophenoxy)2H-phthalazin-1-one], the concentration for half-maximal inhibition (IC50) was determined as 3.7 µM.

Take `C[C@@H](C(=O)N1CCN(C(=O)c2cc(Oc3n[nH]c(=O)c4ccccc34)ccc2F)CC1)c1ccccc1` [Compound 49, (R)-4-(4-fluoro-3-(4-(2-phenylpropionyl)piperazine-1-carbonyl)phenoxy)-2H-phthalazin-1-one]: the IC50 was 4.21 µM.

As to `O=C(c1cc(Oc2n[nH]c(=O)c3ccccc23)ccc1F)N1CCN(C(=O)C2CCCCC2)CC1` [Compound 99], the IC50 is 2.63 µM.

For the compound `O=C(c1cc(Cc2n[nH]c(=O)c3ccccc23)ccc1F)N1CCN(C(=O)C2CC2)CC1` [AZD-2281, reference compound], the IC50 is 4.38 µM.

In a further data set the test system is occlusion of the MCA in mice.
Assay: not given
The settings on record: intracerebroventricular administration; cited from earlier work.
`NC(=O)c1cccc(N)c1` [Compound 3-AB, 3-aminobenzamide]: the “decrease in infarct volume” value was 47%.

Test system in another data set: not listed separately
As to the kind of experiment: Solubility test (thermodynamic solubility, HPLC external standard). It counts as physicochemical. Particulars: aqueous buffer, thermodynamic from solid; pH=7.4 phosphate buffer, 25° C., shaken 24 hours; read-out: Water Solubility (PH = 7.4). How it is done:
In this test, excess amount of test sample was added into pH=7.4 phosphate buffer. Ultrasonic was performed for 30 min until the drug no longer dissolved. The solution was continuously shaked for 24 hours at a constant temperature of 25° C. to achieve a thermodynamic equilibrium of compound, and then the solution was filtrated to get filtrate. Quantitative analysis of compound in filtrate using external standard method is performed according to “Appendix VD High Performance Liquid Chromatography, Part II of Pharmacopeia 2010,” and the sample thermodynamic solubility in pH=7.4 phosphate buffered solution was determined.
Agilent 1200 LC, Phenomen C18 column (4.6 mm*150 mm, […]), mobile phase: methanol:water (60:40), flow rate: 1 mL/min, column temperature: 25° C., wave length: 230 nm, injection volume: 10 μL
About 30 mg test compound was put in a 10 mL volumetric flask, about 8 mL pH=7.4 phosphate buffer was added and ultrasonic was performed for 30 min, and the solution was shaked for 24 hours in a shaker at a constant temperature of 25° C. The solution was settled for half an hour under 25° C., filtered with […] hydrophilic filter. The filtrate was used as test sample.
Standard compound AZD-2281 was put in a volumetric flask and dissolved in the mobile phase. The solutions were injected to measure the peak area. The retention time of AZD-2281 was about 8.5 min. The peak area was regressed against concentration to get a regression equation y=29.66x+302.82 (r=0.9997), and the linear range is 52.45˜83.92 µg/mL (see FIG. 1).
The test solution was injected for three times according to the above chromatographic conditions. The peak area was measured to calculate the corresponding concentration.
The procedures for testing the solubility of other compounds were similar with compound AZD-2281.
A word on the solubility: it is the concentration that dissolves in the medium under given conditions. Turning to `NC1(C(=O)N2CCN(C(=O)c3cc(Oc4n[nH]c(=O)c5ccccc45)ccc3F)CC2)CC1` [Compound 125, 4-(3-(4-(1-aminocyclopropanecarbonyl)piperazine-1-carbonyl)-4-fluorophenoxy)2H-phthalazin-1-one], the solubility at 24 h came out at 671 µg/mL (≈ 1490 µM).

For `CCC(=O)N1CCN(C(=O)c2cc(Oc3n[nH]c(=O)c4ccccc34)ccc2F)CC1` [Compound 100, 4-(4-fluoro-3-(4-propionylpiperazine-1-carbonyl)phenoxy)2H-phthalazin-1-one], the solubility at 24 h came out at 660 µg/mL (≈ 1560 µM).

`CN(C)C1(C(=O)N2CCN(C(=O)c3cc(Oc4n[nH]c(=O)c5ccccc45)ccc3F)CC2)CC1` [Compound 124, 4-(3-(4-(1-(dimethylamino)cyclopropanecarbonyl)piperazine-1-carbonyl)-4-fluorophenoxy)2H-phthalazin-1-one]: the solubility at 24 h worked out at 1440 µg/mL (≈ 3000 µM).

`CC(C)(C)C(=O)N1CCN(C(=O)c2cc(Oc3n[nH]c(=O)c4ccccc34)ccc2F)CC1` [Compound 55, 4-(4-fluoro-3-(4-pivaloylpiperazine-1-carbonyl)phenoxy)-2H-phthalazin-1-one]: the solubility at 24 h was 602 µg/mL (≈ 1330 µM).

For `CNC1(C(=O)N2CCN(C(=O)c3cc(Oc4n[nH]c(=O)c5ccccc45)ccc3F)CC2)CCC1` [Compound 127, 4-(4-fluoro-3-(4-(1-(methylamino)cyclobutanecarbonyl)piperazine-1-carbonyl)phenoxy)2H-phthalazin-1-one], the solubility at 24 h stood at 630 µg/mL (≈ 1310 µM).

Turning to `CC(C)N1CCN(C(=O)c2cc(Oc3n[nH]c(=O)c4ccccc34)ccc2F)CC1` [Compound 79, 4-(4-fluoro-3-(4-isopropyl-1-carbonyl)phenoxy)-2H-phthalazin-1-one], the solubility at 24 h was found to be 650 µg/mL (≈ 1580 µM).

Regarding `O=C(c1cc(Cc2n[nH]c(=O)c3ccccc23)ccc1F)N1CCN(C(=O)C2CC2)CC1` [AZD-2281, reference compound], the solubility at 24 h came out at 531 µg/mL (≈ 1220 µM).

A further data set deals with rat model of focal cerebral ischemia.
Assay: not given
The settings on record: i.p. 10 mg/kg two hours prior to and two hours after the initiation of ischemia; cited from earlier work.
Turning to `O=C1NCCc2c(OCCCCN3CCCCC3)cccc21` [DPQ, 3,4-dihydro-5-[4-(1-piperidinyl)butoxy]-1(2H)-isoquinolinone], the “reduction in infarct volume” value is 54%.
